Our source for the IC50 values is US10292981B2, “Oxazoline and isoxazoline derivatives as CRAC modulators” (LUPIN LIMITED, priority 2010, dated 2019).

What all share (type): cell-based
In one test the test system is SOCE, Jurkat E6.1 cells. Put plainly: SOCE inhibition (thapsigargin/calcium influx, FLIPR). Conditions: Homo sapiens, thapsigargin, calcium chloride. The method, then:
SOCE inhibition: Jurkat E6.1 cells were seeded at a density of 1-2×10^5 cells per well in calcium-4 dye prepared in calcium free HBSS (Sigma, USA). Test compounds from this invention were added to the cells at different concentrations. This was followed by the addition of thapsigargin (TG), a SERCA inhibitor, to empty the stores of calcium. Calcium chloride was added to the cells after 10-30 min to induce calcium influx and the fluorescence was measured for 10 min using the FLIPR-Tetra detection system. Fluorescence was also measured using a plate reader at 485 nm excitation and 520 nm emission (Synergy2, Biotek, USA) after 30-90 minutes of calcium addition. Fluorescence observed in cells treated with Thapsigargin and calcium chloride solution was considered 100% maximal signal and the reduced fluorescent signal observed in the presence of test compounds was expressed as percent inhibition of the maximal signal. The dose response data was analyzed using 4-parametric sigmoidal dose response (variable slope) curve-fit.

In test [1] the test system is NFAT-Luc reporter gene, HEK 293 cells. Put plainly: NFAT transcriptional activity (NFAT-Luc reporter). Conditions: Homo sapiens, HEK293, thapsigargin. The method, then:
NFAT Transcriptional Activity: HEK 293 cells were stably transfected with a NFAT-Luc reporter gene. 30,000-80,000 cells were seeded per well. Test compounds from this invention were added to the cells at different concentrations. Thapsigargin (TG) was added after 10 mins and the cells were incubated for 4-8 h. NFAT transcriptional activity was measured using BrightGlo reagent (Promega USA). Luminescence observed in cells treated with thapsigargin was considered 100% maximal signal and the reduced fluorescent signal observed in the presence of test compounds was expressed as percent inhibition of the maximal signal. The data was analyzed using 4-parametric sigmoidal dose response (variable slope) curve-fit.

The test system of test [2] is IL-2 secretion, Jurkat T cells. Put plainly: Inhibition of IL-2 secretion (PHA-stimulated Jurkat T cells, ELISA). Conditions: Homo sapiens; Jurkat T cells stimulated with PHA, 20 to 24 hours. Here is the method:
The CRAC channel modulatory activity of the compounds were thus evaluated by measuring the secretion of IL-2 by antigen stimulated T-cells in vitro. Alternatively, such activity can also be evaluated by assay methods known to one skilled in the art.
Inhibition of IL-2 secretion: Jurkat T cells were seeded at a density of 0.5 to 1 million cells per well in RPMI medium. Test compounds from this invention were added to the cells at different concentrations. This was followed by the addition of PHA, a T cell mitogen after 10 minutes.
The cells were then incubated for 20 to 24 hours in a CO2 incubator at 37° C. After incubation with the compounds, cells were centrifuged, collected the supernatant and processed for ELISA to quantitate the amount of IL-2 secreted. A commercial ELISA kit (R&D Systems, Inc. Minneapolis, Minn., USA) was used to estimate the IL-2 concentrations. Amount of IL-2 secreted by cells stimulated with PHA was considered as a 100% maximal signal and the decrease in amount of IL-2 secreted by cells treated with the test compounds was expressed as percent inhibition of the maximal signal. The dose response data was analyzed using 4-parametric sigmoidal dose response (variable slope) curve-fit.

As for `COc1ccc(C2=NOC(C)(C)C2=O)cc1-c1ccc(NC(=O)c2c(F)cccc2F)cc1` [Example 15, N-(5′-(5,5-dimethyl-4-oxo-4,5-dihydroisoxazol-3-yl)-2′-methoxy-[1,1′-biphenyl]-4-yl)-2,6-difluorobenzamide], the IC50 in the test with SOCE, Jurkat E6.1 cells is under 1000 nM.

For the molecule `Cc1c(C2=NOC(C)(C)C2=O)cccc1-c1ccc(NC(=O)c2c(F)cccc2F)cc1` [Example 29, N-(3′-(5,5-Dimethyl-4-oxo-4,5-dihydroisoxazol-3-yl)-2′-methyl-[1,1′-biphenyl]-4-yl)-2,6-difluorobenzamide], the IC50 in test [1] is under 500 nM; in test [2], under 100 nM.

Take `COc1ccc(-c2nn(C)c(=O)o2)cc1-c1ccc(NC(=O)c2c(F)cccc2Cl)cc1` [Example 41, 2-Chloro-6-fluoro-N-(2′-methoxy-5′-(4-methyl-5-oxo-4,5-dihydro-1,3,4-oxadiazol-2-yl)[1,1′-biphenyl]-4-yl)benzamide]: the IC50 with SOCE, Jurkat E6.1 cells was under 1000 nM.

For `Cc1nnsc1C(=O)Nc1ccc(-c2cccc(-c3nn(C)c(=O)o3)c2C)cc1` [Example 50, 4-Methyl-N-(2′-methyl-3′-(4-methyl-5-oxo-4,5-dihydro-1,3,4-oxadiazol-2-yl)-[1,1′-biphenyl]-4-yl)-1,2,3-thiadiazole-5-carboxamide], the IC50 in test [1] was under 500 nM.

Molecule `CC(C)Oc1ccc(C2=NOC(C)(C)C2=O)cc1-c1cnc(NC(=O)c2c(F)cccc2F)cn1` [Example 126, N-(5-(5-(5,5-dimethyl-4-oxo-4,5-dihydroisoxazol-3-yl)-2-isopropoxy-phenyl)pyrazin-2-yl)-2,6-difluorobenzamide] displayed an IC50 in test [2] of 100 to 1000 nM.

The molecule `C=CCOc1ccc(C2=NOC(C)(C)C2=O)cc1-c1ccc(NC(=O)c2c(F)cccc2F)cc1` [Example 132, N-(2′-(allyloxy)-5′-(5,5-dimethyl-4-oxo-4,5-dihydroisoxazol-3-yl)-[1,1′-biphenyl]-4-yl)-2,6-difluorobenzamide] registered an IC50 in test [2] of 100 to 1000 nM.

For `CNc1ccc(C2=NOC(C)(C)C2=O)cc1-c1ccc(NC(=O)c2c(F)cccc2F)cc1` [Example 135, N-(5′-(5,5-Dimethyl-4-oxo-4,5-dihydroisoxazol-3-yl)-2′-(methylamino)-[1,1′-biphenyl]-4-yl)-2,6-difluorobenzamide], the IC50 with SOCE, Jurkat E6.1 cells is under 1000 nM; in test [1], under 500 nM; in test [2], under 100 nM.

In test [2], `CN(C)c1ccc(C2=NOC(C)(C)C2=O)cc1-c1ccc(NC(=O)c2c(F)cccc2F)cc1` [Example 136, N-(5′-(5,5-Dimethyl-4-oxo-4,5-dihydroisoxazol-3-yl)-2′-(dimethylamino)-[1,1′-biphenyl]-4-yl)-2,6-difluorobenzamide] yielded an IC50 of 100 to 1000 nM.

In the case of `Cc1ccc(C2=NOC(CO)(CCO)C2)cc1-c1ccc(NC(=O)c2c(F)cccc2F)cc1` (stereo not drawn) [Example 145, 2,6-Difluoro-N-(5′-(5-(2-hydroxyethyl)-5-(hydroxymethyl)-4,5-dihydroisoxazol-3-yl)-2′-methyl-[1,1′-biphenyl]-4-yl)benzamide], the IC50 in test [2] was over 1000 nM.

`CCc1ccc(C2=NOC(C)(C)C2=O)cc1-c1ccc(C(=O)Nc2c(F)cccc2F)s1` [Example 157, N-(2,6-Difluorophenyl)-5-(5-(5,5-dimethyl-4-oxo-4,5-dihydroisoxazol-3-yl)-2-ethyl-phenyl)thiophene-2-carboxamide] yielded an IC50 in test [2] of under 100 nM.

In test [2], `CCc1ccc(C2=NOC(C)(C)C2=O)cc1-c1ccc(C(=O)Nc2ccncc2C)s1` [Example 158, 5-(5-(5,5-Dimethyl-4-oxo-4,5-dihydroisoxazol-3-yl)-2-ethylphenyl)-N-(3-methylpyridin-4-yl)thiophene-2-carboxamide] showed an IC50 of under 100 nM.

As to `COc1ccc(C2=NOC(C)(C)C2=O)cc1-c1ccc(C(=O)Nc2c(F)cccc2F)s1` [Example 160, N-(2,6-Difluorophenyl)-5-(5-(5,5-dimethyl-4-oxo-4,5-dihydroisoxazol-3-yl)-2-methoxy-phenyl)thiophene-2-carboxamide], the concentration for half-maximal inhibition (IC50) is under 1000 nM in the test with SOCE, Jurkat E6.1 cells and under 100 nM in test [2].

As to `CCc1ccc(-c2nn(C)c(=O)o2)cc1-c1ccc(C(=O)Nc2c(F)cccc2F)s1` [Example 171, N-(2,6-Difluorophenyl)-5-(2-ethyl-5-(4-methyl-5-oxo-4,5-dihydro-1,3,4-oxadiazol-2-yl)phenyl)thiophene-2-carboxamide], the IC50 in test [2] was under 100 nM.

Molecule `Cn1nc(-c2ccc(OC(F)F)c(-c3ccc(C(=O)Nc4c(F)cccc4F)s3)c2)oc1=O` [Example 173, 5-(2-(Difluoromethoxy)-5-(4-methyl-5-oxo-4,5-dihydro-1,3,4-oxadiazol-2-yl)phenyl)-N-(2,6-difluorophenyl) thiophene-2-carboxamide] came in with an IC50 in test [2] of under 100 nM.

For the molecule `Cc1c(-c2nn(C)c(=O)o2)cccc1-c1ccc(C(=O)Nc2c(F)cccc2F)s1` [Example 176, N-(2,6-Difluorophenyl)-5-(2-methyl-3-(4-methyl-5-oxo-4,5-dihydro-1,3,4-oxadiazol-2-yl)phenyl)thiophene-2-carboxamide], the IC50 with SOCE, Jurkat E6.1 cells was under 1000 nM; in test [1], under 500 nM; in test [2] it was under 100 nM.
